US20110191897A1, “Plants Tolerant to HPPD Inhibitor Herbicides” (Bayer CropScience AG, priority 2009, published 2011)

Experiments:
[1] = system: rice shoots transformed with FMP37e; test: Bleaching of transformed rice shoots on MS/2 with tembotrione; assay type: in vivo; conditions: 2 weeks
Description: Rice transformation is achieved using methods well known in the art. Briefly, the Agrobacterium tumefaciens mediated transformation of rice was performed using immature embryos, from the restorer line 6G4317. Briefly, panicles from donor plants were harvested 8-12 days after pollination. The lemma of the immature seed was removed. Seeds were thereafter sterilized using a NaOCl based solution and Tween. The seeds were preinduced with acetylsalicylic acid. Agrobacterium tumefaciens cells were then co-cultivated with the preinduced seeds in presence of acetosyringone for 4 days at 24° C. in the dark. Thereafter, coleoptile from embryos were removed and washed, then put on a media supplemented with phosphinothricin for 3 weeks at 28° C. under a photoperiod rhythm of 16 hours. Then the growing calli were cut off from the embryos, and transferred to fresh media containing triacillin, phosphinothricin, L-proline and copper (II) sulfate.
For each callusline and per Tembotrione concentration, 3 shoots, and randomly isolated from different callus pieces, were transferred to MS/2 with Tembotrione. As a general rule, transfer of the shoots from regeneration medium to MS/2 occurred 9 weeks after calli had been put on regeneration medium.
Cultures were incubated at 26.5° C. (16 hrs. photoperiod) and evaluation of symptoms occurred 2 weeks later.
New developing leaves of the shoots transferred have been scored on the basis of bleaching and categorized in 3 groups:
a) no bleaching b) intermediate bleaching c) complete bleaching
Within the category ‘intermediate bleaching’ a distinction has been made between shoots having new leaves showing only very little bleaching symptoms and thus tending to green leaves, and shoots with new leaves almost completely bleached.

[2] = system: T0 tobacco plants expressing the FMP37 HPPD (FMP37t); test: Greenhouse response of T0 tobacco plants to tembotrione; assay type: in vivo, Nicotiana tabacum; conditions: 100 g AI/ha, two weeks after treatment
Excerpt: As an example, rooted plants containing the T-DNA PromCaMV35S-OTP-HIS6—FMP37t-TerCaMV35S, will be transferred to the greenhouse under standard growth conditions. Following a period of acclimation of two weeks, the T0 plants will be treated with a mixture containing 100 g tembotrione/ha prepared from a WP20 (wettable powder 20%) formulation supplemented with ammonium sulfate and methyl ester raps oil. Two weeks after the treatment, the symptoms due to the application of the herbicides will be evaluated. The plants are classified in four categories. The treated plants evaluated as “0” are looking like the untreated tobacco plants. The plants evaluated as “1” display temporary light bleaching phenotype due to the application of the herbicides. The plants evaluated as “2” display permanent light to strong bleaching symptoms. Finally the plants evaluated as “3” are looking like wild type tobacco plants submitted to the same treatment.

[3] = system: soybean events expressing the FMP37 HPPD protein; test: Soybean greenhouse treatment with tembotrione; assay type: in vivo; conditions: 100 g Al/ha, eight events
Description: Plants containing the transgene were then sprayed with HPPD inhibitor herbicides, as for example with tembotrione at a rate of 100 g Al/ha. Ten days after the application the symptoms due to the application of the herbicide were evaluated and compared to the symptoms observed on a wild type plants under the same conditions.
Eight events expressing the FMP37 HPPD protein have been generated from the green shoots of above and were transferred to the greenhouse. Four weeks after acclimation, i.e. plants at a developmental stage of 3-4 internodes were treated with 100 g Al/ha tembotrione prepared from a WP 20 formulation supplemented with ammonium sulfate and methyl ester raps oil. Ten days after application, the symptoms caused by the application of the HPPD inhibitor herbicide were evaluated and compared to the symptoms observed on treated non-transgenic wild-type soybean plants.

CS(=O)(=O)c1ccc(C(=O)C2C(=O)CCCC2=O)c(Cl)c1COCC(F)(F)F [Tembotrione, 2-[2-chloro-4-(methylsulfonyl)-3-[(2,2,2,-tri-fluoroethoxy)methyl]benzoyl]-1,3-cyclo-hexanedione]
N° of shoots completely bleached ([1]; 1 μM): 17 | N° of shoots with intermediate bleaching ([1]; 1 μM): 24 | N° of shoots completely bleached ([1]; 5 μM): 43 | N° of shoots with intermediate bleaching ([1]; 5 μM): 17 | number of plants in category 0 (looking like the untreated tobacco plants) [2]: 6 | number of plants in category 2 (permanent light to strong bleaching) [2]: 13 | number of plants in category 3 (like treated wild type tobacco plants) [2]: 7 | events with bleaching like non-transgenic wild-type soybean plant [3]: two events | events with local transitory bleaching symptoms, recovered completely 7 days after application [3]: One other event | events with transitory light bleaching symptoms, recovered 14 days after application [3]: One event | events without any bleaching phenotype ([3]; ten days after application): Four of the eight events
